≈ marks a conversion by molar mass, not a printed value.
Assay: physchem

**Q.** For `CCCCC(=O)O[C@]1(C(=O)CO)[C@@H](C)C[C@H]2[C@@H]3CCC4=CC(=O)C=C[C@]4(C)[C@@]3(F)[C@@H](O)C[C@@]21C` [betamethasone valerate, Betamethasone valerate], which solubility is on record?
**A.** Its solubility is 5 µg/mL (≈ 10.5 µM).

— patent publication US20090074824A1, “STABLE NANOCAPSULE SYSTEMS FOR THE ADMINISTRATION OF ACTIVE MOLECULES” (priority 2006, published 2009)
